Results as given in patent US9138424B2, “Methods and compositions for treating cornelia de lange syndrome” (Saint Louis University, priority 2012, dated 2015).

Tests used:
[1] = test system: yeast scc2 and mis4 mutants; assay: Growth of temperature-sensitive cohesin/NIPBL-ortholog mutant yeast strains at semipermissive temperature (optical density); type: cell-based, Saccharomyces cerevisiae; Schizosaccharomyces pombe; conditions: relative to vehicle control and parental strains, data not shown
Description: (§1) PLoS One; 4(7):e6202, herein incorporated by reference.
The Inventors began their screening with a library of FDA-approved drugs for their ability to improve the growth of yeast strains with temperature-sensitive mutations in the NIPBL homologs or orthologs. These included the scc2-4 (Nipped-B) mutation, the smc3-42 (cohesin) mutation, mcd1-1 (cohesin) and pds5-1 (Pds5 cohesion maintenance factor) mutation in Saccharomyces cerevisiae, and the mis4-242 (Nipped-B) mutation, and rad21-K1 (cohesin) mutation in Schizosaccharomyces pombe. […] Compounds that improved the growth rate and/or growth maxima of one or more of the mutant strains relative to the parental strains were retested. An improvement in growth rate was defined as a reproducible increase in either the rate of cell division of a mutant yeast strain during the logarithmic growth or the maximal culture density or both as determined by taking the optical density of the culture every 30 min relative to a vehicle control, and the wild-type yeast controls. […] For this reason, Indomethacin and Acemetacin were chosen for further evaluation.

[2] = test system: Drosophila ct^K mutation in the cut gene (Nipped-B dosage sensitive); assay: ct^K wing margin-nicking phenotype after feeding larvae; type: in vivo; conditions: in food from early larval stages (hatching) until pupariation; vs solvent control; FIG. 2
Description: Controls were feed the solvent that was used to dissolve the compounds (DMSO for Indomethacin, PBS for Acemetacin).
as §1

[3] = test system: Drosophila N^spl-1 mutation in the Notch receptor gene; assay: N^spl-1 small rough eye phenotype after treatment; type: in vivo; conditions: data not shown
Description: Potential therapeutic compounds may be assayed for their ability to elevate expression of the Nipped-B gene which will enhance the N^spl-1 phenotype, resulting in a decrease in the size of the eye relative to similar untreated subjects.
as §1
The N^spl-1 mutation in the Notch receptor gene causes a small rough eye phenotype. […] (Rollins et a al., (1999) Genetics; 152 (2):577-93).

[4] = test system: Nipped-B mRNA; assay: Nipped-B RNA levels in cultured ML-DmBG3 cells by quantitative RT-PCR; type: cell-based, Drosophila; conditions: FIG. 3; for effect on Nipped-B RNA in Nipped-B RNAi cells: ML-DmBG3 cells treated with double-stranded RNA to destabilize Nipped-B RNA; for Nipped-B gene RNA transcripts: ML-DmBG3 cells, treatment for 48 hours, RpL32 as standard
Description: as §1

[5] = test system: cohesin-dependent genes; assay: Effect of cohesin depletion on expression of other genes in cultured Drosophila cells; type: cell-based; conditions: not shown
Description: as §1

[6] = test system: Drosophila cells (ML-DmBG3)
[7] = test system: Nipbl mRNA; assay: Nipbl mRNA in C2C12 myogenic cells by RT-PCR; type: cell-based, mouse; conditions: Gapdh as standard, FIG. 4A
Description: as §1
(§2) Expression of these and other adipogenic genes is reduced in Nipbl +/− mice (Kawauchi et al. (2009) PLoS Genet.; 5(9):e1000650), which may explain their reduced fat levels, and potentially why individuals with CdLS tend to be lean.

[8] = test system: Myod1; assay: Myod1 expression in C2C12 myogenic cells by RT-PCR; type: cell-based, mouse; conditions: treatment for 3 days, FIG. 4B
Description: as §1, §2

[9] = test system: Myog; assay: Myog expression in C2C12 myogenic cells by RT-PCR; type: cell-based, mouse; conditions: treatment for 3 days, FIG. 4C
Description: as §1, §2

[10] = test system: Cepba; assay: Cepba expression in C2C12 myogenic cells by RT-PCR; type: cell-based, mouse; conditions: treatment for 3 days, FIG. 4D
Description: as §1, §2

[11] = test system: Pparg; assay: Pparg expression in C2C12 myogenic cells by RT-PCR; type: cell-based, mouse; conditions: treatment for 3 days, FIG. 4E
Description: as §1, §2

[12] = test system: mesenchymal stem cells; conditions: by increasing expression of C/EBPβ and PPARγ2 independently of COX inhibition (Styner et al. 2010); cited from earlier work

Row | SMILES | growth rate and/or growth maxima of mutant yeast strains [1] | occurrence of wing nicking defect (ct^K) [2] | N^spl-1 eye phenotype (eye size) [3] | effect on Nipped-B RNA in Nipped-B RNAi cells [4] | Nipped-B gene RNA transcripts [4] | effect of cohesin depletion on expression of other genes [5] | toxicity [6] | expression of Nipbl [7] | expression of Myod1 myogenic gene [8] | expression of Myog myogenic gene [9] | expression of Cepba adipogenic gene [10] | expression of Pparg adipogenic gene [11] | adipogenesis [12]
1 | COc1ccc2c(c1)c(CC(=O)OCC(=O)O)c(C)n2C(=O)c1ccc(Cl)cc1 [Acemetacin] | improved the growth of the mutant strains | reducing the occurrence of this developmental defect | enhances the N^spl-1 phenotype, decreasing the size of the eye | blocked by Nipped-B RNAi | increase Nipped-B gene RNA transcripts | reduce the effect of cohesin depletion | some toxicity | – | – | – | – | – | –
2 | COc1ccc2c(c1)c(CC(=O)O)c(C)n2C(=O)c1ccc(Cl)cc1 [Indomethacin] | improved the growth of the mutant strains | reducing the occurrence of this developmental defect | – | blocked by Nipped-B RNAi | increase Nipped-B gene RNA transcripts | reduce the effect of cohesin depletion | – | increases expression | reduced expression | reduced expression | increased expression | increased expression | promotes adipogenesis
